Converted amounts (≈) assume the structure as drawn. Like-named read-outs stand apart in the source and are kept apart here.
Assays:
[1] = cited from earlier work; for AUC0-last: Seaber1997
clinical = conditions: human, in vivo
Protocol: The final treatment administered was 3.8 mg on a 10 cm^2 patch using an applicator with 0.52 Joule of application energy in the intracutaneous microneedle system described herein. The products tested were:
(§1) The array was applied to the center of a 5 cm^2 tan adhesive backing to form the patch. The patch was attached to the interior of a white to off-white polycarbonate ring co-molded with a desiccant, and this patch assembly was packaged in a foil pouch.
as §1
The array was applied to the center of a 10 cm^2 tan adhesive backing to form the patch. The patch was attached to the interior of a white to off-white polycarbonate ring co-molded with a desiccant, and this patch assembly was packaged in a foil pouch.
This was a single-center, open-label, randomized five-way crossover study (Part 1) followed by a sequential study of two additional treatments (Parts 2 and 3). After obtaining informed consent and establishing eligibility, each subject received each of the seven study treatments once, followed by in-clinic monitoring and extensive blood sample collection for pharmacokinetic analysis. […] Plasma samples from the initial dosing days were sent to the analytical laboratory for analysis, and tolerability for each of the dose levels was summarized. […] During Part 3, subjects received a single 3.8 mg patch (applied with a 0.52 J applicator) and also completed identical procedures to the previous dosing days. After completion of the seven dosing days, subjects were assessed one final time and dismissed from the study.
Twenty subjects were enrolled in the study, 10 males and 10 females. The subjects mean age was 29 years±3.5 years with a mean BMI of 24.4±3.5.
PK parameters were summarized by treatment group using descriptive statistics (arithmetic means, standard deviations, coefficients of variation, sample size, minimum, maximum, and median).
Graphs of apparent dose linearity and proportionality of PK parameters (AUCt, AUCinf and Cmax) were compiled.

5HT1B/1D = conditions: relative to zolmitriptan; cited from earlier work
[2] = Solubility of zolmitriptan in 0.1 M acids at 2-8° C.; assay type: physicochemical; conditions: de-ionized water
Text: The suspension was then centrifuged.

[3] = In vivo pig study: zolmitriptan distribution in skin by quantitative mass-spectrometry imaging; conditions: swine skin after 1-hour ADAM wear
Text: Evidence of zolmitriptan diffusion within the skin was obtained by quantitative mass-specetrometry imaging. Analyses of the surface area of the stratum corneum, epidermis, and dermis indicate that the largest amount of zolmitriptan localized to the dermis.

CN(C)CCc1c[nH]c2ccc(C[C@H]3COC(=O)N3)cc12 [Zolmitriptan 10 mg oral, zolmitriptan]
AUC0-last ([1]; females (F)): 108.6 ng·h/mL
AUC0-last ([1]; males (M)): 84.4 ng·h/mL

CN(C)CCc1c[nH]c2ccc(C[C@H]3COC(=O)N3)cc12 [Oral Zolmi]
AUC0-last Dose (clinical; po, 2.5 mg): 8.6 ng·h/mL/mg

CNS(=O)(=O)Cc1ccc2[nH]cc(CCN(C)C)c2c1 [SC Suma]
AUC0-last Dose (clinical; sc, 6 mg): 16.8 ng·h/mL/mg

CNS(=O)(=O)Cc1ccc2[nH]cc(CCN(C)C)c2c1 [Sumatriptan]
Tmax ([1]; marketed dosage form): about 2 hours
bioavailability ([1]; oral administration): about 15%

CNS(=O)(=O)Cc1ccc2[nH]cc(CCN(C)C)c2c1 [Sumatriptan SC]
t1/2 (clinical; sc): 1.14 H

CNCCc1c[nH]c2ccc(C[C@H]3COC(=O)N3)cc12 [N-desmethyl zolmitriptan]
metabolite concentrations relative to zolmitriptan ([1]; after zolmitriptan administration): about two-thirds
5HT1B/1D potency, times that of the parent (5HT1B/1D): 2 to 6 times

CN(C)CCc1c[nH]c2ccc(C[C@H]3COC(=O)N3)cc12 [Zolmitriptan oral tablet]
AUCinf (clinical; both, po, 2.5 mg): 27.19 ng · H/mL
Cmax (clinical; both, po, 2.5 mg): 3.77 ng/mL
Tmax (clinical; both, po, 2.5 mg): 1.79 h
AUC(0-t) (clinical; both, po, 2.5 mg, AUC2 hrs): 4.72 ng·h/mL
AUC(0-t) (clinical; both, po, 2.5 mg, AUCt): 22.2 ng·h/mL

CN(C)CCc1c[nH]c2ccc(C[C@H]3COC(=O)N3)cc12 [Zolmitriptan, zolmitriptan]
Solubility [2]: 1.3 mg/mL (≈ 4.52 mM)
Percentage of Total Zolmitriptan ([3]; Dermis/hypodermis): 95.5
Percentage of Total Zolmitriptan ([3]; Epidermis): 2.7
Percentage of Total Zolmitriptan ([3]; Stratum corneum): 1.8
